Results reported in paper PMC10984466, “Structure-based identification of salicylic acid derivatives as malarial threonyl tRNA-synthetase inhibitors” (PLOS ONE, 2024).
Where two headings read alike, the source gives them in different places.

Target: T1, PfThrRS (Plasmodium falciparum, UniProt Q8IIA4)
T1 construct: made in house; host or cells: E. coli BL21(DE3)
T1 sequence (Q8IIA4 21-1013): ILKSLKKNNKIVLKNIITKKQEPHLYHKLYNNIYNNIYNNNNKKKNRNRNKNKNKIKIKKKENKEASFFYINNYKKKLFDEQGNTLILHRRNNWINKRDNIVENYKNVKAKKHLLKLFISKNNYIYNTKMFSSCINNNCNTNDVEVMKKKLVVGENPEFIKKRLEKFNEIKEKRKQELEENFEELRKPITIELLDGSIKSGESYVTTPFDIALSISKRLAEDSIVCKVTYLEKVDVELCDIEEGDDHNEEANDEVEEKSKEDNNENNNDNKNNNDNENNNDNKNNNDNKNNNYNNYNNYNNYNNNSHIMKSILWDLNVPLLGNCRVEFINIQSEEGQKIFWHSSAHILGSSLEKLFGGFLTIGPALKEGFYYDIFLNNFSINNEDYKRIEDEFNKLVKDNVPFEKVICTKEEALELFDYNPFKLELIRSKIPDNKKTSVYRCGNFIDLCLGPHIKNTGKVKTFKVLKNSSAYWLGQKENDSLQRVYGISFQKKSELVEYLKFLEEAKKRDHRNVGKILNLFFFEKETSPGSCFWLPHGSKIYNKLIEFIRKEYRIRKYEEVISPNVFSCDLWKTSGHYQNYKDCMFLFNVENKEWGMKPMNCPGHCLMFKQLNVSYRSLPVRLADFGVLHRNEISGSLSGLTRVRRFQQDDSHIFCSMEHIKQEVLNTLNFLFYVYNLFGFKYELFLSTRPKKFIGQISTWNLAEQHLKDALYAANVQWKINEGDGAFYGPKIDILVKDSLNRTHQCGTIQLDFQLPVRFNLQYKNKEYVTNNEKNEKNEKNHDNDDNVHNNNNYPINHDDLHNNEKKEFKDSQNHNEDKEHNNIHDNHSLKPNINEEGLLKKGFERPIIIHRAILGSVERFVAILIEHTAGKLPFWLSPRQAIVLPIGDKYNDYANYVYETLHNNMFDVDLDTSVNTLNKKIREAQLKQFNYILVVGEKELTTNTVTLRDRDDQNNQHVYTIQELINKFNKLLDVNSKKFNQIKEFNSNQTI
Test: In vitro PfThrRS inhibition assay (aminoacylation activity, ATP consumption by Kinase-Glo luminescence)
Format: biochemical
Settings: for LE (ligand efficiency): PfThrRS inhibitors, Fig 4 and text
Description: The bioassay protocol was adapted from the literature. The aminoacylation activity of PfThrRS in the presence of compounds was determined by measuring ATP consumption in the enzymatic reaction by using recombinant PfThrRS and P. falciparum cell extract as a source of t-RNA. ATP consumption was determined by Kinase-Glo® Reagent (Promega Inc.). The luminescence was read on a Tecan Infinite M1000 microplate reader. The inhibitory rate was measured in three independent assays. Borrelidin was obtained from commercial sources and used as a reference compound.

[1] = Table SI1, adenosine binding subsite substituent
[2] = Table SI1, adenosine binding subsite substituent, fraction of PfThrRS inhibited at 100 µM, read-out: ThrRS inhibition @100 µM, %
[3] = Table SI3, zinc ion binding group, fraction of PfThrRS inhibited at 100 µM, read-out: ThrRS inhibition @100 µM, %
[4] = Table SI2, arginine binding group, fraction of PfThrRS inhibited at 100 µM, read-out: ThrRS inhibition @100 µM, %

Structure (SMILES) | IC50 [1] [µM] | inhibition at 100 µM [2] [%] | further results
O=C(O)c1cc(S(=O)(=O)Nc2ccccc2)ccc1O [7a, 2-Hydroxy-5-(N-phenylsulfamoyl)benzoic acid] | 13.1 ± 1.4 | 100 | LE (ligand efficiency) (listed as 7): 0.34
COC(=O)c1cc(S(=O)(=O)Nc2ccccc2)ccc1O [7b, Methyl 2-hydroxy-5-(N-phenylsulfamoyl)benzoate] |  |  | inhibition at 100 µM [3]: 19 ± 8%
O=C(NO)c1cc(S(=O)(=O)Nc2ccccc2)ccc1O [7c, N,2-dihydroxy-5-(N-phenylsulfamoyl)benzamide] |  |  | inhibition at 100 µM [3]: 16 ± 7%
O=C(O)c1cc(S(=O)(=O)Nc2ccccc2)ccc1S [7d, 2-Mercapto-5-(N-phenylsulfamoyl)benzoic acid] |  |  | inhibition at 100 µM [3]: 16 ± 11%
COc1ccc(S(=O)(=O)Nc2ccccc2)cc1C(=O)O [7e] |  |  | inhibition at 100 µM [3]: 11 ± 7%
O=C(O)c1cccc(S(=O)(=O)Nc2ccccc2)c1 [7f] |  |  | inhibition at 100 µM [3]: 2 ± 4%
O=C(O)c1cc(S(=O)(=O)Nc2ccccc2)ccc1F [7g] |  |  | inhibition at 100 µM [3]: 0%
O=C(O)CC(O)(Cc1ccccc1)c1ccc(O)c(C(=O)O)c1 (stereo not drawn) [7h, 5-(1-Carboxy-2-hydroxy-3-phenylpropan-2-yl)-2-hydroxybenzoic acid] |  |  | inhibition at 100 µM [4]: 10 ± 8%
O=C(O)c1cc(C(Nc2ccccc2)C(=O)O)ccc1O (stereo not drawn) [7i, 5-(Carboxy(phenylamino)methyl)-2-hydroxybenzoic acid] |  |  | inhibition at 100 µM [4]: 0%
O=C(O)c1cc(S(=O)(=O)c2ccccc2)ccc1O [7j, 2-Hydroxy-5-(phenylsulfonyl)benzoic acid] |  |  | inhibition at 100 µM [4]: 11 ± 10%
O=C(Nc1cccc(C(F)(F)F)c1)c1cccc(NS(=O)(=O)c2ccc(O)c(C(=O)O)c2)c1 [7k] | 31 ± 2 | 100 | 
O=C(O)c1cc(S(=O)(=O)Nc2cc(Cl)ccc2Oc2ccccc2)ccc1O [7l] | 32 ± 2 | 100 | 
CCCCc1ccc(NS(=O)(=O)c2ccc(O)c(C(=O)O)c2)cc1 [7m] | 31 ± 2 | 93 | 
O=C(O)c1cc(S(=O)(=O)Nc2ccc(I)cc2)ccc1O [7n] | 46 ± 2 | 88 | 
O=C(O)c1cc(S(=O)(=O)Nc2ccc(Br)cc2)ccc1O [7o] | 32 ± 2 | 84 | 
COc1cccc(-c2cccc(NS(=O)(=O)c3ccc(O)c(C(=O)O)c3)c2)c1 [7p, 2-Hydroxy-5-(N-(3’-methoxy-[1,1’-biphenyl]-3-yl)sulfamoyl)benzoic acid] | 46 ± 3 | 80 ± 9 | 
O=C(O)c1cc(S(=O)(=O)Nc2ccc(Cc3ccccc3)cc2)ccc1O [7q, 5-(N-(4-benzylphenyl)sulfamoyl)-2-hydroxybenzoic acid] | 55 ± 3 | 67 ± 11 | 

Structure (SMILES) | IC50 [1] [µM] | inhibition at 100 µM [2] [%] | further results
O=C(O)c1cc(S(=O)(=O)Nc2cccc(Cl)c2)ccc1O [7r] | 76 ± 4 | 64 | 
Cc1ccc(NS(=O)(=O)c2ccc(O)c(C(=O)O)c2)cc1 [7s] | 67 ± 3 | 63 | 
O=C(O)c1cc(S(=O)(=O)Nc2ccc(Oc3ccccc3)cc2)ccc1O [7t, 2-Hydroxy-5-(N-(4-phenoxyphenyl)sulfamoyl)benzoic acid] |  |  | inhibition at 100 µM (100 μM compound, Figs 6, 8, 12, read-out: PfThrRS inhibition @100 μM, %): 58 ± 9%
O=C(O)c1cc(S(=O)(=O)Nc2ccc3oc(=O)sc3c2)ccc1O [7u] | 89 ± 4 | 58 | 
O=C(O)c1cc(S(=O)(=O)Nc2cccc3ccccc23)ccc1O [7v] | 84 ± 4 | 57 | 
O=C(O)c1cc(S(=O)(=O)Nc2ccc(Cl)cc2)ccc1O [7w] |  | 31 ± 10 | 
O=C(O)c1cc(S(=O)(=O)Nc2cccc(-c3ccccc3)c2)ccc1O [7x, 5-(N-([1,1’-biphenyl]-3-yl)sulfamoyl)-2-hydroxybenzoic acid] |  | 7 ± 1 | 
O=C(O)c1cc(S(=O)(=O)Nc2ccc(Oc3ccccc3)cc2)ccc1O [LVV-455] |  | 35 ± 11 | 
Cc1c(C(=O)O)nnn1-c1sc2c(c1C(=O)O)CCCC2 [compound 8] |  |  | LE (ligand efficiency): 0.33; IC50 (verified HTVS hits, Fig 4): 10.3 ± 1.2 µM
O=C(O)CCS(=O)(=O)c1ccc2c(c1)OCCCO2 [compound 9] |  |  | LE (ligand efficiency): 0.30; IC50 (verified HTVS hits, Fig 4): 75 ± 5 µM
O=C(c1ccn(-c2ccc(F)cc2)n1)N1CCC(O)(C(=O)O)C1 (stereo not drawn) [compound 10] |  |  | LE (ligand efficiency): 0.29; IC50 (verified HTVS hits, Fig 4): 19 ± 2 µM
Cc1nc2cc(NC(=O)C3C4C=CC(C4)C3C(=O)O)ccc2o1 (stereo not drawn) [compound 11] |  |  | LE (ligand efficiency): 0.27; IC50 (verified HTVS hits, Fig 4): 39 ± 4 µM
O=C(O)CCc1nc2c(O)nc(SCc3ccccc3F)[nH]c-2nc1=O [compound 12] |  |  | LE (ligand efficiency): 0.27; IC50 (verified HTVS hits, Fig 4): 12.1 ± 1.6 µM
O=C(O)c1cc(C2CCN(C(=O)C[C@H]3CCCCO3)CC2)no1 [compound 13] |  |  | LE (ligand efficiency): 0.26; IC50 (verified HTVS hits, Fig 4): 65 ± 5 µM
Cc1csc2ncc(C(=O)N[C@H]3Cc4ccc(C(=O)O)cc4C3)n12 [compound 14] |  |  | LE (ligand efficiency): 0.25; IC50 (verified HTVS hits, Fig 4): 49 ± 5 µM
CCCCC[C@H](O)CC[C@@H]1[C@H]2Cc3cccc(OCC(=O)O)c3C[C@H]2C[C@H]1O [compound 15, Remodulin, reference compound] |  |  | LE (ligand efficiency): 0.25; IC50 (verified HTVS hits, Fig 4): 12.5 ± 1.5 µM
